Experimental data reported in article PMC10281575, “PfCRT mutations conferring piperaquine resistance in falciparum malaria shape the kinetics of quinoline drug binding and transport” (PLOS Pathogens, 2023).
Several values for one entry are separate records, joined by “and”; a condition that tells them apart may be missing. Equal entries are not always repeated.

Target: T1, PfCRT^Dd2 (Plasmodium falciparum, UniProt Q8IBZ9, A220S/I356T/K76T/M74I/N326S/N75E/Q271E/R371I)
T1 sequence (Q8IBZ9 1-424 M74I/N75E/K76T/A220S/Q271E/N326S/I356T/R371I): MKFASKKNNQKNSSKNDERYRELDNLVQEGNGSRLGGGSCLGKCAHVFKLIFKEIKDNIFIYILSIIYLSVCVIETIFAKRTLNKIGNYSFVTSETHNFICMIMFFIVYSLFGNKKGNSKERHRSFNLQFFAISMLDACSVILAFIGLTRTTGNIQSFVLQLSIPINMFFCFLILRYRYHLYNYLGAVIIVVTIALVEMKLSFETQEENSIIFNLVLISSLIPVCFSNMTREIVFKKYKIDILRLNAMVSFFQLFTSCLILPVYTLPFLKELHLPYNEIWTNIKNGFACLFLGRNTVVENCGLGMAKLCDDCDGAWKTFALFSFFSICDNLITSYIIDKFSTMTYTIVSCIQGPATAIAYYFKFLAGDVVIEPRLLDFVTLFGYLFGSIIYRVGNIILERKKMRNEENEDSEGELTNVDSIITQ
Assay: Radiolabeled drug uptake (transport assay) in Xenopus laevis oocytes expressing PfCRT^Dd2
Type: cell-based
Parameters: expressed in transfected cells; host or cells: Xenopus laevis oocytes injected with in vitro transcribed RNA (pSP64T)
Protocol: The two kinetic parameters were derived by fitting the Michaelis-Menten equation to the kinetic data (Table 1).
Adult female X. laevis frogs (purchased from NASCO) were anesthetized by submersion in a solution of 0.3% (w/v) 3-amino benzoate methanesulfonate for 15 min. Sections of the ovary were surgically removed and placed in Ca^2+-free ND96 buffer supplemented with 0.1% collagenase D (w/v; Roche), 0.5% BSA (w/v) and 9 mM Na2HPO4 at 18°C for 14–16 h while gently shaking. The oocytes were then washed several times with ND96 buffer (5 mM HEPES, pH 7.5, 96 mM NaCl, 2 mM KCl, 1.8 mM CaCl2, 1 mM MgCl2), supplemented with […] gentamycin. Healthy-looking stage V-VI oocytes were manually selected and randomly grouped for injection. A codon-optimized coding sequence of PfCRT was subcloned into the pSP64T expression vector and subsequently linearized using the restriction endonuclease BamHI or SalI (New England Biolabs GmbH). RNA for injection was transcribed in vitro using the mMESSAGE mMACHINE SP6 Transcription kit (Ambion), diluted with nuclease-free water to a final concentration of 0.6 μg/μL and stored at -80°C. RNA was injected using precision-bore glass capillary tubes (3.5-inch glass capillaries; Drummond Scientific Co.), which were pulled on a vertical puller (P-87 Flaming/Brown micropipette puller, Sutter Instrument Co.) and graduated. The micropipettes were connected to a microinjector (Nanoject II Auto-Nanoliter Injector, Drummond Scientific Co.). Injection was conducted under stereomicroscopic control. 50 nL of nuclease-free water alone (control oocytes) or 50 nL of nuclease-free water containing 30 ng of RNA was injected per oocyte. Injected oocytes were kept for 72 h at 18°C in ND96 buffer with two daily buffer changes before being used for further experiments.
Drug transport assays were performed as previously described. Briefly, measurements of radiolabeled drug uptake were made over 1 h, unless otherwise specified. […] Where specified, one or more unlabeled drugs were also present at the indicated concentrations. […] The uptake assays were terminated by removing the oocytes from the reaction medium and washing them three times with 2 mL of ice-cold ND96 buffer. Each oocyte was transferred to a separate scintillation vial and lysed by the addition of 200 μL of a 5% SDS solution. The radioactivity in the sample was measured using a liquid scintillation analyser Tri-Carb 4910 TR (PerkinElmer). Water-injected oocytes were analyzed in parallel as a negative control. The buffer from each condition was measured in duplicate in parallel to each experiment to transform counts per minute into pmol of drug. Drug uptake attributable to PfCRT was determined by subtracting the background uptake from water-injected oocytes from that of PfCRT-expressing oocytes. In all cases, at least three independent experiments were performed on oocytes from different frogs, and for each condition in an experiment, measurements were made from 10 oocytes per treatment.

[1] = 50 μM CQ, pH 6.0, water-injected uptake subtracted, per replicate
[2] = 60 min, pH 6, per biological replicate

Q: With `CCN(CC)CCCC(C)Nc1ccnc2cc(Cl)ccc12` (centres unmarked) [CQ, chloroquine] as the molecule, how does the “PfCRTDd2 uptake of CQ at 180 min” value (50 μM CQ, pH 6.0, total uptake, one value per biological replicate) read?
A: 26.87 pmol oocyte-1 and 30.32 pmol oocyte-1 and 26.73 pmol oocyte-1 and 25.67 pmol oocyte-1

Q: And the “PfCRTDd2-mediated CQ uptake at 10 min” value [1]?
A: 1.03 pmol oocyte-1 and 0.90 pmol oocyte-1 and 1.98 pmol oocyte-1 and 0.91 pmol oocyte-1

Q: What about the “PfCRTDd2-mediated CQ uptake at 30 min” value [1] of the same molecule?
A: 1.52 pmol oocyte-1 and 5.01 pmol oocyte-1 and 4.35 pmol oocyte-1

Q: And the “PfCRTDd2-mediated CQ uptake at 60 min” value [1]?
A: 4.91 pmol oocyte-1 and 4.76 pmol oocyte-1 and 7.49 pmol oocyte-1 and 5.04 pmol oocyte-1

Q: What about the “PfCRTDd2-mediated CQ uptake at 120 min” value [1] of the same molecule?
A: 9.09 pmol oocyte-1 and 10.40 pmol oocyte-1 and 9.67 pmol oocyte-1

Q: And the “PfCRTDd2-mediated CQ uptake at 180 min” value [1]?
A: 13.62 pmol oocyte-1 and 9.61 pmol oocyte-1 and 9.37 pmol oocyte-1 and 10.85 pmol oocyte-1

Q: What about the “PfCRTDd2-mediated CQ uptakeat 90 min” value [1] of the same molecule?
A: 7.12 pmol oocyte-1 and 4.31 pmol oocyte-1 and 9.50 pmol oocyte-1 and 9.09 pmol oocyte-1

Q: And the “PfCRTDd2-mediated CQ uptake at 50 µM CQ” value (50 µM CQ, single replicates)?
A: 3.98 pmol oocyte-1 h-1 and 2.97 pmol oocyte-1 h-1 and 3.90 pmol oocyte-1 h-1 and 4.91 pmol oocyte-1 h-1 and 4.76 pmol oocyte-1 h-1 and 7.49 pmol oocyte-1 h-1 and 10.46 pmol oocyte-1 h-1 and 5.04 pmol oocyte-1 h-1

Q: What about the “PfCRTDd2-mediated CQ uptake at 100 µM CQ” value (100 µM CQ, single replicates) of the same molecule?
A: 9.74 pmol oocyte-1 h-1 and 9.30 pmol oocyte-1 h-1 and 7.99 pmol oocyte-1 h-1

Q: And the “PfCRTDd2-mediated CQ uptake at 200 µM CQ” value (200 µM CQ, single replicates)?
A: 17.86 pmol oocyte-1 h-1 and 9.84 pmol oocyte-1 h-1 and 13.66 pmol oocyte-1 h-1 and 12.77 pmol oocyte-1 h-1

Q: And the “PfCRTDd2-mediated CQ uptake at 300 µM CQ” value (300 µM CQ, single replicates)?
A: 20.89 pmol oocyte-1 h-1 and 20.25 pmol oocyte-1 h-1 and 12.53 pmol oocyte-1 h-1

Q: What about the “PfCRTDd2-mediated CQ uptake at 400 µM CQ” value (400 µM CQ, single replicates) of the same molecule?
A: 20.30 pmol oocyte-1 h-1 and 20.79 pmol oocyte-1 h-1 and 20.10 pmol oocyte-1 h-1

Q: And the “PfCRTDd2-mediated CQ uptake at 500 µM CQ” value (500 µM CQ, single replicates)?
A: 20.49 pmol oocyte-1 h-1 and 20.91 pmol oocyte-1 h-1 and 20.75 pmol oocyte-1 h-1 and 25.01 pmol oocyte-1 h-1

Q: And the “PfCRTDd2-mediated CQ uptake at 10 µM CQ” value [2]?
A: 0.97 pmol oocyte-1 h-1 and 1.33 pmol oocyte-1 h-1 and 1.00 pmol oocyte-1 h-1

Q: And the “PfCRTDd2-mediated CQ uptake at 50 µM CQ” value [2]?
A: 3.98 pmol oocyte-1 h-1 and 2.97 pmol oocyte-1 h-1 and 3.90 pmol oocyte-1 h-1 and 4.91 pmol oocyte-1 h-1 and 4.76 pmol oocyte-1 h-1 and 7.49 pmol oocyte-1 h-1 and 10.46 pmol oocyte-1 h-1 and 5.04 pmol oocyte-1 h-1

Q: And the “PfCRTDd2-mediated CQ uptake at 100 µM CQ” value [2]?
A: 9.74 pmol oocyte-1 h-1 and 9.30 pmol oocyte-1 h-1 and 7.99 pmol oocyte-1 h-1

Q: What about the “PfCRTDd2-mediated CQ uptake at 200 µM CQ” value [2] of the same molecule?
A: 17.86 pmol oocyte-1 h-1 and 9.84 pmol oocyte-1 h-1 and 13.66 pmol oocyte-1 h-1 and 12.77 pmol oocyte-1 h-1

Q: What about the “PfCRTDd2-mediated CQ uptake at 300 µM CQ” value [2] of the same molecule?
A: 20.89 pmol oocyte-1 h-1 and 20.25 pmol oocyte-1 h-1 and 12.53 pmol oocyte-1 h-1

Q: What about the “PfCRTDd2-mediated CQ uptake at 400 µM CQ” value [2] of the same molecule?
A: 20.30 pmol oocyte-1 h-1 and 20.79 pmol oocyte-1 h-1 and 20.10 pmol oocyte-1 h-1

Q: What about the “PfCRTDd2-mediated CQ uptake at 500 µM CQ” value [2] of the same molecule?
A: 20.49 pmol oocyte-1 h-1 and 20.91 pmol oocyte-1 h-1 and 20.75 pmol oocyte-1 h-1 and 25.01 pmol oocyte-1 h-1

Q: And the “Vmax, maximal velocity of drug transport” value (Michaelis-Menten fit, 10-500 μM drug, 60 min, pH 6)?
A: 33 ± 1 pmol oocyte^-1 h^-1

Q: And the Km (Michaelis-Menten fit, 10-500 μM drug, 60 min, pH 6, read-out: KM, Michaelis constant)?
A: 260 ± 10 µM

Q: What about the “PfCRTDd2-mediated CQ transport” value (S6 Fig, per biological replicate) of the same molecule?
A: 7.120 pmol oocyte-1 h-1 and 4.130 pmol oocyte-1 h-1 and 5.320 pmol oocyte-1 h-1
